According to the NIST ThermoML archive (doi:10.1016/j.tca.2006.10.025):
Numbers after ± are expanded uncertainties.

Experiments:
[1] = molar heat capacity at constant pressure; conditions: 101.33 kPa, Liquid, Small sample (50 mg) DSC
[2] = 303.15 K; 101.33 kPa; Liquid; Vibrating tube method
[3] = molar heat capacity at constant pressure; xn = mol fraction of the nth substance listed; conditions: 303.15 K, 101 kPa, Liquid, Small sample (50 mg) DSC
[4] = excess molar enthalpy (molar enthalpy of mixing); xn = mol fraction of the nth substance listed; conditions: 303.15 K, 101 kPa, Liquid, Flow calorimetry

CCCCCCCCCCO [decan-1-ol]
[1]
Conditions	molar heat capacity at constant pressure [J/K/mol]
288.15 K	360.1 ± 5.6
293.15 K	368.5 ± 5.7
298.15 K	373.9 ± 5.8
303.15 K	379.3 ± 5.9
308.15 K	385.3 ± 6
313.15 K	390.6 ± 6.1
318.15 K	395.9 ± 6.1
323.15 K	401.3 ± 6.2

Conditions	mass density [kg/m3]
[2]	822.95 ± 0.31

C[S+](C)[O-] [dimethyl sulfoxide] + CCO
Conditions	excess molar enthalpy [kcal/mol]	molar heat capacity at constant pressure [J/K/mol]
[3], x1 = 0.0356	–	117.9 ± 1.8
[3], x1 = 0.0504	–	119.1 ± 1.8
[3], x1 = 0.1092	–	121.7 ± 1.9
[3], x1 = 0.1636	–	121.8 ± 1.9
[3], x1 = 0.2647	–	124.6 ± 1.9
[3], x1 = 0.3441	–	126.3 ± 2
[3], x1 = 0.4469	–	129.9 ± 2
[3], x1 = 0.557	–	133 ± 2.1
[3], x1 = 0.6498	–	136.8 ± 2.1
[3], x1 = 0.7615	–	141 ± 2.2
[3], x1 = 0.8872	–	146.6 ± 2.3
[3], x1 = 0.9408	–	148 ± 2.3
[4], x1 = 0.0332	0.0294 ± 0.000956	–
[4], x1 = 0.0642	0.0514 ± 0.000956	–
[4], x1 = 0.0933	0.0672 ± 0.0012	–
[4], x1 = 0.1207	0.0813 ± 0.0012	–
[4], x1 = 0.1707	0.0978 ± 0.00143	–
[4], x1 = 0.2154	0.109 ± 0.00143	–
[4], x1 = 0.2917	0.12 ± 0.00167	–
[4], x1 = 0.3543	0.122 ± 0.00167	–
[4], x1 = 0.4516	0.117 ± 0.00143	–
[4], x1 = 0.5527	0.106 ± 0.00143	–
[4], x1 = 0.6222	0.0949 ± 0.0012	–
[4], x1 = 0.7119	0.077 ± 0.0012	–
[4], x1 = 0.7671	0.0652 ± 0.000956	–
[4], x1 = 0.8317	0.0483 ± 0.000717	–
[4], x1 = 0.8682	0.0375 ± 0.000717	–
[4], x1 = 0.9081	0.0282 ± 0.000478	–
[4], x1 = 0.9518	0.0148 ± 0.000478	–

C[S+](C)[O-] [dimethyl sulfoxide] + CCCO
Conditions	excess molar enthalpy [kcal/mol]	molar heat capacity at constant pressure [J/K/mol]
[3], x1 = 0.0514	–	146.2 ± 2.3
[3], x1 = 0.1127	–	144 ± 2.2
[3], x1 = 0.2114	–	141.8 ± 2.2
[3], x1 = 0.3163	–	142.6 ± 2.2
[3], x1 = 0.418	–	139.9 ± 2.2
[3], x1 = 0.5029	–	140.6 ± 2.2
[3], x1 = 0.6216	–	140.7 ± 2.2
[3], x1 = 0.7068	–	141.6 ± 2.2
[3], x1 = 0.7975	–	144.2 ± 2.2
[3], x1 = 0.8537	–	145.6 ± 2.3
[3], x1 = 0.8994	–	146.5 ± 2.3
[3], x1 = 0.9429	–	147.6 ± 2.3
[4], x1 = 0.0421	0.0449 ± 0.0012	–
[4], x1 = 0.0808	0.0803 ± 0.00143	–
[4], x1 = 0.1165	0.109 ± 0.00167	–
[4], x1 = 0.1495	0.134 ± 0.00191	–
[4], x1 = 0.2086	0.163 ± 0.00215	–
[4], x1 = 0.2601	0.184 ± 0.00239	–
[4], x1 = 0.3452	0.204 ± 0.00263	–
[4], x1 = 0.4127	0.21 ± 0.00263	–
[4], x1 = 0.5133	0.205 ± 0.00263	–
[4], x1 = 0.6128	0.189 ± 0.00239	–
[4], x1 = 0.6783	0.171 ± 0.00215	–
[4], x1 = 0.7598	0.136 ± 0.00191	–
[4], x1 = 0.8084	0.118 ± 0.00167	–
[4], x1 = 0.8634	0.0884 ± 0.0012	–
[4], x1 = 0.894	0.0722 ± 0.0012	–
[4], x1 = 0.9268	0.0521 ± 0.000956	–
[4], x1 = 0.962	0.0282 ± 0.000717	–

CCCCCCCCCCO [decan-1-ol] + C[S+](C)[O-]
Conditions	excess molar enthalpy [kcal/mol]	molar heat capacity at constant pressure [J/K/mol]
[3], x2 = 0.0868	–	355.3 ± 5.5
[3], x2 = 0.1641	–	338 ± 5.2
[3], x2 = 0.2592	–	316.3 ± 4.9
[3], x2 = 0.4231	–	282.4 ± 4.4
[3], x2 = 0.5259	–	259.2 ± 4
[3], x2 = 0.6431	–	235.2 ± 3.6
[3], x2 = 0.7082	–	221.4 ± 3.4
[3], x2 = 0.7997	–	201 ± 3.1
[3], x2 = 0.8618	–	186.2 ± 2.9
[3], x2 = 0.8908	–	179.2 ± 2.8
[3], x2 = 0.9159	–	172.9 ± 2.7
[3], x2 = 0.9596	–	162.1 ± 2.5
[4], x2 = 0.1006	0.111 ± 0.00191	–
[4], x2 = 0.1828	0.209 ± 0.00287	–
[4], x2 = 0.2512	0.277 ± 0.00359	–
[4], x2 = 0.3091	0.317 ± 0.00406	–
[4], x2 = 0.4016	0.353 ± 0.00454	–
[4], x2 = 0.4722	0.364 ± 0.00454	–
[4], x2 = 0.573	0.36 ± 0.00454	–
[4], x2 = 0.6414	0.353 ± 0.00454	–
[4], x2 = 0.7286	0.328 ± 0.00406	–
[4], x2 = 0.8011	0.301 ± 0.00382	–
[4], x2 = 0.843	0.271 ± 0.00359	–
[4], x2 = 0.8895	0.228 ± 0.00311	–
[4], x2 = 0.9148	0.196 ± 0.00287	–
[4], x2 = 0.9416	0.15 ± 0.00263	–
[4], x2 = 0.9555	0.118 ± 0.00287	–
[4], x2 = 0.9699	0.0846 ± 0.00263	–
[4], x2 = 0.9847	0.0457 ± 0.00263	–

CCCCCCO [hexan-1-ol]
[1]
Conditions	molar heat capacity at constant pressure [J/K/mol]
288.15 K	231.6 ± 3.6
293.15 K	237.5 ± 3.7
298.15 K	241.3 ± 3.7
303.15 K	246 ± 3.8
308.15 K	251 ± 3.9
313.15 K	256.2 ± 4
318.15 K	262.5 ± 4.1
323.15 K	268.9 ± 4.2

Conditions	mass density [kg/m3]
[2]	811.39 ± 0.31

C[S+](C)[O-] [dimethyl sulfoxide] + CCCCO
Conditions	excess molar enthalpy, [4] [kcal/mol]	molar heat capacity at constant pressure, [3] [J/K/mol]
x1 = 0.051	0.0715 ± 0.00143	–
x1 = 0.0874	–	175.2 ± 2.7
x1 = 0.097	0.124 ± 0.00191	–
x1 = 0.1288	–	172.3 ± 2.7
x1 = 0.1385	0.164 ± 0.00215	–
x1 = 0.1769	0.189 ± 0.00239	–
x1 = 0.2324	–	167 ± 2.6
x1 = 0.2438	0.221 ± 0.00287	–
x1 = 0.3007	0.236 ± 0.00311	–
x1 = 0.364	–	161.2 ± 2.5
x1 = 0.3921	0.255 ± 0.00335	–
x1 = 0.4541	–	158 ± 2.4
x1 = 0.4622	0.254 ± 0.00311	–
x1 = 0.5633	0.245 ± 0.00311	–
x1 = 0.5775	–	155.4 ± 2.4
x1 = 0.6568	–	152.7 ± 2.4
x1 = 0.6594	0.223 ± 0.00287	–
x1 = 0.7207	0.201 ± 0.00263	151.6 ± 2.3
x1 = 0.7577	–	150.8 ± 2.3
x1 = 0.7947	0.171 ± 0.00215	–
x1 = 0.8377	0.144 ± 0.00191	–
x1 = 0.8537	–	150.3 ± 2.3
x1 = 0.8856	0.112 ± 0.00167	–
x1 = 0.9117	0.0901 ± 0.00143	–
x1 = 0.919	–	150 ± 2.3
x1 = 0.9393	0.0652 ± 0.00143	–
x1 = 0.9542	–	151.5 ± 2.3
x1 = 0.9687	0.0356 ± 0.0012	–
